Consider 24 compounds from patent US20060204460A1, “Lip gloss composition” (KOKYU ALCOHOL KOGYO CO., LTD., priority 2005, published 2006).

The series can be described thus: Viscosity of liquid oil (E) on a Brookfield viscometer. Format: physicochemical. To be noted: at 25 degrees C., No. 2 spindle, 12 rpm. The procedure: The liquid oil having a viscosity of from 5 to 400 mPa·s at 25 degrees C., (E), is known and commonly used in cosmetics. The viscosity of the liquid oil at 25 degrees C. is preferably 8 to 350 mPa·s, and more preferably 12 to 300 mPa·s. […] The viscosity is measured on a Brookfield viscometer using No. 2 spindle at 12 rpm.
`CCCCCCCCCCCCCCCCOC(=O)C(CC)CCCC` (stereo not drawn) [cetyl ethylhexanoate] displayed a Viscosity of 13 mPa·s. Consider `CC(C)CCCCCCOC(=O)CCCCCC(C)C` [isononyl isononanoate], for which the Viscosity stood at 6 mPa·s. Consider `CC(C)CCCCCCCCCCCCCCC(=O)OC(C)C` [isopropyl isostearate], for which the Viscosity is given as 10 mPa·s. Compound `CCCCCCCCCCCCCCCC(=O)OC(C)C` [isopropyl palmitate] registered a Viscosity of 7 mPa·s. Regarding `CC(C)CCCCCCCCCCCCCCCOC(=O)CCCCCCCCCCCCCCC(C)C` [isostearyl isostearate], the Viscosity amounted to 40 mPa·s. For `CC(C)CCCCCCCCCCCCCCCOC(=O)C(C)(C)C` [isostearyl neopentanoate], the Viscosity worked out at 15 mPa·s.

For `CC(C)CCCCCCCCCCOC(=O)CCCCCC(C)C` [isotridecyl isononanoate], the Viscosity is recorded as 12 mPa·s. To `CCCCCCCCCC(=O)OCC(C)(C)COC(=O)CCCCCCCCC` [neopentylglycol dicaprate] belongs 19 mPa·s; to `CCCCC(CC)C(=O)OCC(C)(C)COC(=O)C(CC)CCCC` (stereo not drawn) [neopentylglycol diethylhexanoate], 13 mPa·s; to `CCCCC(CC)C(=O)OCC(COC(=O)C(CC)CCCC)(COC(=O)C(CC)CCCC)COC(=O)C(CC)CCCC` (stereo not drawn) [pentaerythrityl tetraethylhexanoate], 110 mPa·s. `CC(C)CCCC(C)CCCC(C)CCCCC(C)CCCC(C)CCCC(C)C` (stereo not drawn) [squalane] gave a Viscosity of 32 mPa·s. Compound `CCCCC(CC)C(=O)OCC(COC(=O)C(CC)CCCC)OC(=O)C(CC)CCCC` (stereo not drawn) [triethyl hexanoin] displayed a Viscosity of 35 mPa·s. The compound diisopropyl dilinoleate showed a Viscosity of 310 mPa·s. To ethylhexyl hydroxystearate belongs 64 mPa·s; to hexyldecyl ethylhexanoate, 11 mPa·s; to hexyldecyl isostearate, 34 mPa·s. In turn, isononyl ethylhexanoate displayed a Viscosity of 5 mPa·s. octyldodecyl neodecanoate registered a Viscosity of 25 mPa·s. To octyldodecyl neopentanoate belongs 15 mPa·s; to octyldodecyl stearoyloxystearate, 90 mPa·s.

With pentaerythrityl tetraisostearate, the Viscosity worked out at 290 mPa·s. triisostearine: the Viscosity was 185 mPa·s. For the compound trimethylolpropane triethylhexanoate, the Viscosity stood at 52 mPa·s. Under trimethylolpropane triisostearate stands 180 mPa·s.
